Results as given in patent US5744451A, “N-substituted glutamic acid derivatives with interleukin-1 β converting enzyme inhibitory activity” (Warner-Lambert Company, priority 1996, dated 1998).
Residues, ends and D or L forms follow the SMILES beside them.

What was measured:
[1] = molecular target: T1, ICE (interleukin-1β converting enzyme) (Homo sapiens, UniProt P29466); assay: ICE inhibition, fluorogenic Ac-Tyr-Val-Ala-Asp-AMC hydrolysis progress curves (Ki and kon); format: biochemical; settings: [I]=2 or 4 μM
T1 sequence (P29466 120-297 limits assumed): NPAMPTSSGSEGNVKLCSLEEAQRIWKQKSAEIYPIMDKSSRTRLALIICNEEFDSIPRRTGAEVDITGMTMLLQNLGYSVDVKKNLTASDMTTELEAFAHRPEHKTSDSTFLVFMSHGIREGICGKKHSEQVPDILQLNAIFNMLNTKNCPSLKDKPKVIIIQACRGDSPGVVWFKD
T1 sequence (P29466 317-404 limits assumed): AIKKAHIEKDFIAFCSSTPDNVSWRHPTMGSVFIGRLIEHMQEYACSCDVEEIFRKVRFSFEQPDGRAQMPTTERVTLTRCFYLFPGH
Description: The progress curves are fit to the equation F=F0 +Vf.t+(Vi -Vf) (1-exp(-kobs t))/kobs, where F0 is the initial fluorescence, Vi and Vf are initial and final reaction velocities, and kobs is the pseudo first-order rate of inhibition. Ki is calculated as Ki =SPF.[I]Vf /(Vi -Vf), where the substrate protection factor (SPF) is 1+[S]/Km =17.7. kon is calculated as SPF.kobs /[I].

[2] = system: human peripheral blood mononuclear cells (PBMCs); assay: Viability of PBMCs by MTT assay; format: cell-based; settings: compound at 100 μM, additional 4 hours with MTT
Description: Further evidence that compounds of Formula I are valuable inhibitors of ICE is provided by their ability to inhibit IL-1β production in human peripheral blood mononuclear cells (PBMCs) as described herein. PBMCs are isolated from heparinized blood by centrifugation over a ficoll cushion, then washed three times with phosphate-buffered saline. PBMCs are suspended in a medium containing RPMI 1640 with glutamine, penicillin, streptomycin and 2% human AB serum, then plated at 10^6 cells per well in 96-well flat bottom plates. PBMCs are stimulated overnight with 10 ng/mL of lipopolysaccharide (LPS, E. Coli strain 0111:B4; Calbiochem) in the presence or absence of a compound of Formula I. Medium is harvested and the level of mature IL-1β was determined using an ELISA kit from R & D Systems. Cells were cultured for an additional 4 hours in the presence of 3-(4,5-dimethylthiazol-2-yl)-2,5-diphenyltetrazolium bromide (MTT) to determine viability.

Compound: CC(=O)N[C@@H](Cc1ccc(O)cc1)C(=O)N[C@H](C(=O)N[C@@H](C)C(=O)N[C@H](C=O)CCC(=O)O)C(C)C [Ac-Tyr-Val-Ala-Glu[CHO]] (Ac-YVAE-aldehyde)
- Ki ([1]; ICE 0.24 nM, 250 μM substrate Ac-Tyr-Val-Ala-Asp-AMC, corrected by SPF 17.7, read-out: Ki against ICE): 1.8 nM
- kon ([1]; kon = SPF.kobs/[I], read-out: kon against ICE): 17200 M⁻¹ s⁻¹
- cell viability after treatment (MTT assay) [2]: > 95%
